# Test results reported in ChEMBL document CHEMBL1143306, “3-amido-4-anilinoquinolines as CSF-1R kinase inhibitors 2: Optimization of the PK profile” (Bioorg Med Chem Lett, 2009).
# System: NIH3T3
# Experiment: Antiproliferative activity against mouse 3T3 cells expressing human CSF1R after 72 hrs by Celltiter assay
# Assay type: functional
# Conditions: not given
row,SMILES,Activity [µM]
1,COc1cc2c(Nc3cccc(Cl)c3Cl)c(C(N)=O)cnc2cc1N1CCN(C)CC1,0.17
2,CCOc1cc2ncc(C(N)=O)c(Nc3cccc(Cl)c3Cl)c2cc1N1CCCN(C(C)C)CC1,0.02
3,CC(C)Oc1cc2ncc(C(N)=O)c(Nc3cccc(Cl)c3F)c2cc1N1CCN(C)CC1,0.21
4,CC(C)Oc1cc2ncc(C(N)=O)c(Nc3ccc(Cl)c(Cl)c3)c2cc1N1CCN(C)CC1,0.12
5,COc1cc2ncc(C(N)=O)c(Nc3ccc(F)cc3F)c2cc1OC,0.4
6,CCOc1cc2ncc(C(N)=O)c(Nc3cccc(Cl)c3Cl)c2cc1N1CCN(CCO)CC1,0.03
7,CCOc1cc2ncc(C(N)=O)c(Nc3cc(C)ccc3F)c2cc1N1CCN(C)CC1,0.09
8,CCOc1cc2ncc(C(N)=O)c(Nc3cccc(Cl)c3Cl)c2cc1N1CCN(CCOC)CC1,0.03
9,CCOc1cc2ncc(C(N)=O)c(Nc3ccc(F)cc3F)c2cc1N1CCN(C2CC2)CC1,0.66

# System: not listed separately
# Experiment: Aqueous solubility of the compound
# Assay type: physicochemical
# Conditions: buffer
row,solubility [µM],SMILES
1,63,COCCOc1cc2ncc(C(N)=O)c(Nc3ccc(C)cc3F)c2cc1N1CCN(C)CC1
2,420,CCOc1cc2ncc(C(N)=O)c(Nc3cccc(Cl)c3Cl)c2cc1N1CCCN(C(C)C)CC1
3,250,CC(C)Oc1cc2ncc(C(N)=O)c(Nc3ccc(Cl)c(Cl)c3)c2cc1N1CCN(C)CC1
4,66,CCOc1cc2ncc(C(N)=O)c(Nc3cc(C)ccc3F)c2cc1N1CCN(C)CC1
5,13,CCOc1cc2ncc(C(N)=O)c(Nc3cccc(Cl)c3Cl)c2cc1N1CCN(CCOC)CC1
6,150,CCOc1cc2ncc(C(N)=O)c(Nc3ccc(F)cc3F)c2cc1N1CCN(C2CC2)CC1

# The remaining lines, values behind:
row,SMILES,solubility [µM]
1,COCCOc1cc2ncc(C(N)=O)c(Nc3ccc(F)cc3F)c2cc1N1CCN(C)CC1,720
2,CCOc1cc2ncc(C(N)=O)c(Nc3ccc(C)cc3F)c2cc1N1CCN(C)CC1,54
3,CCOc1cc2ncc(C(N)=O)c(Nc3ccc(F)cc3F)c2cc1N1CCCN(C)CC1,530
4,COc1cc2c(Nc3cccc(Cl)c3Cl)c(C(N)=O)cnc2cc1N1CCN(C)CC1,220
5,CC(C)Oc1cc2ncc(C(N)=O)c(Nc3cccc(Cl)c3F)c2cc1N1CCN(C)CC1,790
6,CCOc1cc2ncc(C(N)=O)c(Nc3cccc(Cl)c3Cl)c2cc1N1CCN(CCO)CC1,67
7,CCOc1cc2ncc(C(N)=O)c(Nc3ccc(F)cc3F)c2cc1N1CCC(O)CC1,2

# System: not listed separately
# Experiment: Plasma protein binding assessed as percentage unbound
# Conditions: not given
row,fraction unbound,SMILES
1,0.16,COCCOc1cc2ncc(C(N)=O)c(Nc3ccc(C)cc3F)c2cc1N1CCN(C)CC1
2,0.049,CCOc1cc2ncc(C(N)=O)c(Nc3cccc(Cl)c3Cl)c2cc1N1CCCN(C(C)C)CC1
3,0.01,CC(C)Oc1cc2ncc(C(N)=O)c(Nc3ccc(Cl)c(Cl)c3)c2cc1N1CCN(C)CC1
4,0.017,CCOc1cc2ncc(C(N)=O)c(Nc3cccc(Cl)c3Cl)c2cc1N1CCN(CCOC)CC1

# Second part, the compound before the results:
row,SMILES,fraction unbound
1,COCCOc1cc2ncc(C(N)=O)c(Nc3ccc(F)cc3F)c2cc1N1CCN(C)CC1,0.46
2,CCOc1cc2ncc(C(N)=O)c(Nc3ccc(F)cc3F)c2cc1N1CCCN(C)CC1,0.31
3,CC(C)Oc1cc2ncc(C(N)=O)c(Nc3cccc(Cl)c3F)c2cc1N1CCN(C)CC1,0.049
4,CCOc1cc2ncc(C(N)=O)c(Nc3cccc(Cl)c3Cl)c2cc1N1CCN(CCO)CC1,0.048
5,CCOc1cc2ncc(C(N)=O)c(Nc3ccc(F)cc3F)c2cc1N1CCC(O)CC1,0.089

# System: not listed separately
# Experiment: Bioavailability in rat at 3 mg/kg, iv and 10 mg/kg, po
# Assay type: ADME, organism-based
# Conditions: in vivo
row,bioavailability [%],SMILES
1,100,COCCOc1cc2ncc(C(N)=O)c(Nc3ccc(C)cc3F)c2cc1N1CCN(C)CC1
2,88,CCOc1cc2ncc(C(N)=O)c(Nc3cc(C)ccc3F)c2cc1N1CCN(C)CC1
3,34,CCOc1cc2ncc(C(N)=O)c(Nc3ccc(F)cc3F)c2cc1N1CCN(C2CC2)CC1

# More lines, now with the values behind:
row,SMILES,bioavailability [%]
1,COCCOc1cc2ncc(C(N)=O)c(Nc3ccc(F)cc3F)c2cc1N1CCN(C)CC1,100
2,CCOc1cc2ncc(C(N)=O)c(Nc3ccc(C)cc3F)c2cc1N1CCN(C)CC1,46
3,CCOc1cc2ncc(C(N)=O)c(Nc3ccc(F)cc3F)c2cc1N1CCCN(C)CC1,16
4,COc1cc2ncc(C(N)=O)c(Nc3ccc(F)cc3F)c2cc1OC,100

# System: not listed separately
# Experiment: Clearance in rat at 3 mg/kg, iv and 10 mg/kg, po
# Assay type: ADME, organism-based
# Conditions: in vivo
row,clearance [mL/min/kg],SMILES
1,33,COCCOc1cc2ncc(C(N)=O)c(Nc3ccc(C)cc3F)c2cc1N1CCN(C)CC1
2,28,CCOc1cc2ncc(C(N)=O)c(Nc3cc(C)ccc3F)c2cc1N1CCN(C)CC1
3,21,CCOc1cc2ncc(C(N)=O)c(Nc3ccc(F)cc3F)c2cc1N1CCN(C2CC2)CC1

# Second part, the compound before the results:
row,SMILES,clearance [mL/min/kg]
1,COCCOc1cc2ncc(C(N)=O)c(Nc3ccc(F)cc3F)c2cc1N1CCN(C)CC1,68
2,CCOc1cc2ncc(C(N)=O)c(Nc3ccc(C)cc3F)c2cc1N1CCN(C)CC1,10
3,CCOc1cc2ncc(C(N)=O)c(Nc3ccc(F)cc3F)c2cc1N1CCCN(C)CC1,32
4,COc1cc2ncc(C(N)=O)c(Nc3ccc(F)cc3F)c2cc1OC,23

# System: not listed separately
# Experiment: Volume of distribution at steady state in rat at 3 mg/kg, iv and 10 mg/kg, po
# Assay type: ADME, organism-based
# Conditions: in vivo, read-out: Vdss
row,Vd [L/kg],SMILES
1,8.6,COCCOc1cc2ncc(C(N)=O)c(Nc3ccc(C)cc3F)c2cc1N1CCN(C)CC1
2,5.3,CCOc1cc2ncc(C(N)=O)c(Nc3cc(C)ccc3F)c2cc1N1CCN(C)CC1
3,0.6,CCOc1cc2ncc(C(N)=O)c(Nc3ccc(F)cc3F)c2cc1N1CCN(C2CC2)CC1

# The next lines start with the compound.
row,SMILES,Vd [L/kg]
1,COCCOc1cc2ncc(C(N)=O)c(Nc3ccc(F)cc3F)c2cc1N1CCN(C)CC1,18
2,CCOc1cc2ncc(C(N)=O)c(Nc3ccc(C)cc3F)c2cc1N1CCN(C)CC1,1.8
3,CCOc1cc2ncc(C(N)=O)c(Nc3ccc(F)cc3F)c2cc1N1CCCN(C)CC1,16
4,COc1cc2ncc(C(N)=O)c(Nc3ccc(F)cc3F)c2cc1OC,0.9

# System: not listed separately
# Experiment: Half life in rat at 3 mg/kg, iv and 10 mg/kg, po
# Assay type: ADME, organism-based
# Conditions: in vivo
row,half-life [h],SMILES
1,3.4,COCCOc1cc2ncc(C(N)=O)c(Nc3ccc(C)cc3F)c2cc1N1CCN(C)CC1
2,2.3,CCOc1cc2ncc(C(N)=O)c(Nc3cc(C)ccc3F)c2cc1N1CCN(C)CC1
3,0.9,CCOc1cc2ncc(C(N)=O)c(Nc3ccc(F)cc3F)c2cc1N1CCN(C2CC2)CC1

# More lines, now with the values behind:
row,SMILES,half-life [h]
1,COCCOc1cc2ncc(C(N)=O)c(Nc3ccc(F)cc3F)c2cc1N1CCN(C)CC1,3.8
2,CCOc1cc2ncc(C(N)=O)c(Nc3ccc(C)cc3F)c2cc1N1CCN(C)CC1,2.3
3,CCOc1cc2ncc(C(N)=O)c(Nc3ccc(F)cc3F)c2cc1N1CCCN(C)CC1,6.6
4,COc1cc2ncc(C(N)=O)c(Nc3ccc(F)cc3F)c2cc1OC,0.6

# System: Mus musculus
# Experiment: Inhibition of phosphorylated CSF1R level in 3T3/CSF1R mutant cells xenografted nude mouse at 25 mg/kg, po after 2 hrs by ELISA
# Assay type: functional
# Conditions: not given
row,SMILES,inhibition in vivo at 25 mg/kg [%]
1,COCCOc1cc2ncc(C(N)=O)c(Nc3ccc(C)cc3F)c2cc1N1CCN(C)CC1,100
2,COCCOc1cc2ncc(C(N)=O)c(Nc3ccc(F)cc3F)c2cc1N1CCN(C)CC1,100
3,CCOc1cc2ncc(C(N)=O)c(Nc3ccc(F)cc3F)c2cc1N1CCCN(C)CC1,90
4,CCOc1cc2ncc(C(N)=O)c(Nc3cccc(Cl)c3Cl)c2cc1N1CCCN(C(C)C)CC1,90
5,CCOc1cc2ncc(C(N)=O)c(Nc3cc(C)ccc3F)c2cc1N1CCN(C)CC1,90
6,CCOc1cc2ncc(C(N)=O)c(Nc3ccc(F)cc3F)c2cc1N1CCN(C2CC2)CC1,70

# System: Mus musculus
# Experiment: Inhibition of phosphorylated CSF1R level in 3T3/CSF1R mutant cells xenografted nude mouse at 25 mg/kg, po after 6 hrs by ELISA
# Assay type: functional
# Conditions: not given
row,SMILES,inhibition in vivo at 25 mg/kg [%]
1,COCCOc1cc2ncc(C(N)=O)c(Nc3ccc(C)cc3F)c2cc1N1CCN(C)CC1,80
2,COCCOc1cc2ncc(C(N)=O)c(Nc3ccc(F)cc3F)c2cc1N1CCN(C)CC1,70
3,CCOc1cc2ncc(C(N)=O)c(Nc3ccc(C)cc3F)c2cc1N1CCN(C)CC1,60
4,CCOc1cc2ncc(C(N)=O)c(Nc3ccc(F)cc3F)c2cc1N1CCCN(C)CC1,55
5,CCOc1cc2ncc(C(N)=O)c(Nc3cccc(Cl)c3Cl)c2cc1N1CCCN(C(C)C)CC1,75
6,CCOc1cc2ncc(C(N)=O)c(Nc3cc(C)ccc3F)c2cc1N1CCN(C)CC1,80
7,CCOc1cc2ncc(C(N)=O)c(Nc3ccc(F)cc3F)c2cc1N1CCN(C2CC2)CC1,10
